Literature values, collected in US20160089381A1, “STABILITY OF PROGESTOGEN FORMULATIONS” (Novo Nordisk HealthCare AG, priority 2003, published 2016).

Test system: endometrium
Conditions: dose equivalent to 1 mg NETA

SMILES | Endometrium transformation dosage
CC(=O)O[C@]1(C(C)=O)CC[C@H]2[C@@H]3C[C@H](C)C4=CC(=O)CC[C@]4(C)[C@H]3CC[C@@]21C [medroxyprogestogen acetate] | 5 mg
CC(=O)O[C@]1(C(C)=O)CC[C@H]2[C@@H]3C=C(Cl)C4=CC(=O)[C@@H]5C[C@@H]5[C@]4(C)[C@H]3CC[C@@]21C [cyproterone acetate] | 1 mg
